Values quoted from earlier work, collected in article PMC6272651, “Novel Orally Active Analgesic and Anti-Inflammatory Cyclohexyl-N-Acylhydrazone Derivatives” (Molecules, 2015).

Molecular target: T1, adenosine receptor, subtype A2A (Rattus norvegicus, UniProt P30543)
T1 construct: gene Adora2a
Assay: radioligand displacement of [3H]CGS21680 ([…]) from rat A2A receptors
Conditions: read-out: Binding A2a / % of inhibition ^a

T1 sequence (P30543 whole entry): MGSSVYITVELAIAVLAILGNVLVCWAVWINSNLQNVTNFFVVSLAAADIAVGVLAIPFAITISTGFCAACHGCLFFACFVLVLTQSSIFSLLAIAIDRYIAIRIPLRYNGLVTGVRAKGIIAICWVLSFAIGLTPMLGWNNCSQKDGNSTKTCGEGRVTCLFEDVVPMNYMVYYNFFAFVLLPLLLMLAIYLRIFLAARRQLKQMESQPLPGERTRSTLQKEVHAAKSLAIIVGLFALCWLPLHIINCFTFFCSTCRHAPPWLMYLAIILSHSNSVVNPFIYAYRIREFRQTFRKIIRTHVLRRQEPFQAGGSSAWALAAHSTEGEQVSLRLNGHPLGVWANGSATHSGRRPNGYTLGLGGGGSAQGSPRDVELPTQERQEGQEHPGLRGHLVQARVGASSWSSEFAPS

Ki: 8.2 µM
SMILES: O=C(N/N=C/c1cccs1)c1ccc2c(c1)OCO2 [compound 8, (E)-N'-((thiophen-2-yl)methylene)benzo[d][1,3]dioxole-5-carbohydrazide]
